{
  "source": "patent EP0702683B1",
  "about": "“06-SUBSTITUTED GUANINE DERIVATIVES, A PROCESS FOR THEIR PREPARATION AND THEIR USE IN TREATING TUMOUR CELLS” (Cancer Research Technology Limited, priority 1993, dated 1994)",
  "key": {"[1]": {"test": "Growth inhibition of V79 cells by inactivator alone", "assay_type": "cell-based, Chinese hamster", "details": "chinese hamster, v79 cells, Figure 5", "experimental": "In order to assess the effects on cell growth alone, Xeroderma pigmentosum cells and Chinese Hamster V79 cells were exposed to increasing concentrations (up to 600µM) of selected inactivators for 2h at 37°. In some cases, the inactivators were allowed to undergo hydrolysis at 37°C for 20 hours and then added to […] in order to assess the extent to which the decomposition products of the agents might inhibit cell growth. After 6 days the extent of cell growth was determined as described above."}, "ATase": {"tested_on": "ATase", "test": "Depletion of ATase activity in A375 tumour xenografts", "assay_type": "in vivo, nude mice", "details": "30 mg/kg, 2 or 24 hours after administration, Fig. 8, in words", "experimental": "(§1) 0X6 OPT, England (OLAC mice). […] For this reason lower doses were administered.\n(§2) A375M (human melanoma) cells were grown in DMEM containing 10% fetal bovine serum. The cells were prepared for in vivo inoculation by incubation with 0.01% trypsin.\n(§3) Cells (10^6) in 100µl of PBS were injected subcutaneously into the right-hand flank of 8-10 week old nu/nu athymic mice. These cells were allowed to develop into a tumour for 3-4 weeks for passaging into experimental animals. Tumour blocks measuring 2mm x 2mm x 2mm were implanted subcutaneously on the right hand flank. These animals were ready for use in inactivator experiments in 7-10 days."}, "A375 tumour xenografts": {"tested_on": "A375 tumour xenografts", "test": "Sensitization of A375 tumour xenografts to BCNU (tumour volume)", "assay_type": "in vivo, nude mice", "details": "30 or 60 mg/kg i.p. 60 - 90 minutes prior to 10 - 25 mg/kg BCNU, Figs. 9-13, in words", "experimental": "as §1, §2, §3\nXenograft tumour measurements were taken every 1-2 days by workers using digital calipers. Tumour volume was calculated using the formula (h x w x 1) π/6. The experimental animals were also weighed every 1-2 days. Measurements continued until tumours in the control animals reached the maximum allowable volume (i.e. 1cm x 1cm x 1cm)."}, "[2]": {"test": "Inactivator toxicity in bone marrow cells (GM-CFC colonies, inactivator alone)", "assay_type": "cell-based, human", "details": "human, bone marrow gm-cfc, inactivator 10uM, read-out: No. of colonies as % of control (ie no inactivator)", "source_text": "(§4) For the granulocyte/macrophage colony-forming cell (GM-CFC) assay primary human bone marrow samples were obtained from patients undergoing cardiothoracic surgery. […] The colonies represented precursor cells of the granulocyte/macrophage lineage (huGM-CFC). […]"}, "bone marrow cells": {"tested_on": "bone marrow cells", "test": "Inactivator toxicity in bone marrow cells (GM-CFC colonies, inactivator alone)", "assay_type": "cell-based, human", "details": "10uM, 5 patients A - E, Table 7, in words", "source_text": "as §4"}},
  "note": "Like-named read-outs stand apart in the source and are kept apart here.",
  "data": [
    {"compound": "Nc1nc(OCc2ccco2)c2nc[nH]c2n1", "note": "[B.4203, O^6-furfurylguanine]", "values": [
      {"measurement": "selectivity ratio", "setting": "[1]; read-out: growth inhibitory dose in V79 cells relative to the I50 dose", "value": "≥ 100"},
      {"measurement": "MCC at 2 h", "setting": "[1]; inactivator alone, up to 600µM, 2h at 37°, read-out: doses producing some growth inhibition of V79 cells", "value": "> 100", "unit": "µM"}
    ]},
    {"compound": "Nc1nc(OCc2cccs2)c2nc[nH]c2n1", "note": "[B.4205, O^6-thenylguanine]", "values": [
      {"measurement": "inactivating ATase in human melanoma xenografts grown in nude mice, compared with BeG", "setting": "ATase", "value": "as effective as BeG"},
      {"measurement": "reducing tumour volume / sensitising human melanoma xenografts to BCNU, compared with BeG", "setting": "A375 tumour xenografts", "value": "comparable to 0^6-benzylguanine (BeG)"},
      {"measurement": "viability at 216 h, 10 µM", "setting": "[2]; Patient A", "value": 91, "unit": "%"},
      {"measurement": "viability at 216 h, 10 µM", "setting": "[2]; Patient B", "value": 46, "unit": "%"},
      {"measurement": "viability at 216 h, 10 µM", "setting": "[2]; Patient C", "value": 97, "unit": "%"},
      {"measurement": "viability at 216 h, 10 µM", "setting": "[2]; Patient D", "value": 118, "unit": "%"},
      {"measurement": "viability at 216 h, 10 µM", "setting": "[2]; Patient E", "value": 89, "unit": "%"},
      {"measurement": "toxic effect of inactivator alone on bone marrow cells, compared with 0^6-benzylguanine", "setting": "bone marrow cells", "value": "comparable to those for 0^6-benzylguanine"}
    ]}
  ]
}
